In PubChem BioAssay AID1963827 (Molecular Pharmacology Branch, DTP, NCI, 2024):
Several values for one entry are separate records, joined by “and”; a condition that tells them apart may be missing. Equal values may be shown once.

System: 994946-033-R-J1-PDC complex spheroid viability
Experiment: Anticancer human tumor 994946-033-R-J1-PDC patient-derived melanoma cell line growth inhibition [POLQ]
Settings: for viability, T/C: stronger effect = lower value
Experimental: Multicellular complex tumor spheroid response to Polymerase (POL) inhibitors (novobiocin, ART-558, RP6685) in combination with a variety of drugs and investigational agents in selected tumor cell lines
The POL inhibitors (novobiocin, ART-558, and RP6685) were evaluated both individually and in combination with standard of care and investigational anticancer small molecules within a complex spheroid model of solid tumors. . Complex spheroids include a stromal component modeled by human endothelial cells (HUVEC) and fibroblasts modeled by human mesenchymal stem cells (MSCs). The concentration ranges selected for each drug and investigational agent were based upon clinically achievable concentrations if the clinical Cmax of the agent was known.
Compounds. The drugs and investigational agents: novobiocin (NSC847541), ART-558 (NSC835418), RP-6685 (NSC848927), peposertib (NSC802822), ceralasertib (NSC780249), elimusertib (NSC800525), camonsertib (NSC841442), AZD-1390 (NSC803789), olaparib (NSC753686), talazoparib (NSC767125), rucaparib (NSC756644), sotorasib (NSC818433), MRTX-1133 (NSC836407), SN-38 (NSC673596), topotecan (NSC609699), epotoside (NSC141540), doxorubicin (NSC123127), gemcitabine (NSC613327), 5-fluorouracil (NSC19893), paclitaxel (NSC125973), vemurafenib (NSC761431), MSA-2 (NSC828583), SN-011 (NSC837082), adavosertib (NSC754352), prexasertib (NSC758257), carboplatin (NSC241240) and oxaliplatin (NSC266046), were obtained from the National Cancer Institute (NCI) Developmental Therapeutics Program Chemical Repository (21). The FDA-approved anticancer drug set is available from the Developmental Therapeutics Program at https://dtp.cancer.gov/organization/dscb/obtaining/. […] The stock solutions were prepared in dimethyl sulfoxide (DMSO, Sigma-Aldrich, St. Louis, MO, cat. D2650), except for the platinum compounds which were prepared in saline (Quality Biological, Gaithersburg, MD, cat. 114-055-101), at 800-fold the tested concentration and stored at -70 degrees C prior to their use. All drugs and investigational agents were tested over a range starting from a high concentration at or near the clinical Cmax and decreasing in half-log increments. If the clinical Cmax for an agent had not been determined, the highest concentration tested was 10 microM, except for SN-38, which was tested at a high concentration of 1 microM.
Cell Culture. All cells were maintained in an incubator at 37 degrees C and 5% CO2 with 95% humidity. The PDC lines were cultured according to standard operating procedures established by the NCI PDMR (https://pdmr.cancer.gov). Table 3 of the manuscript, lists the cell lines along with the number of the three cell types plated to form the mct-spheroids and media for tumor cell growth. After thawing, all PDC lines, except 997537-175-T-J1-PDC and 415267-285-R-J2-PDC, were cultured in Matrigel-coated flasks prepared with a working solution of 1X Ham's F-12 nutrient mix, without supplementation (Thermo Fisher Scientific, cat. 11765054), 100 U/mL penicillin-streptomycin (Thermo Fisher Scientific, cat. 15140122), and 2.5% Matrigel (Corning Inc., Corning, NY, cat. 354248) for the first three passages. The two PDC lines 997537-175-T-J1-PDC and 415267-285-R-J2-PDC were cultured on uncoated flasks. The 857933-349-R-J2-PDC line was cultured in 6C/Colon 1B media containing advanced DMEM/F-12 (Thermo Fisher Scientific, cat. 12634028), 10 mM HEPES (Thermo Fisher Scientific, cat. 15630080), 1X GlutaMAX supplement (Thermo Fisher Scientific, cat. 35050061), 0.1 mg/mL primocin (InvivoGen, San Diego, CA, cat. ant-pm-2), 10% defined fetal bovine serum, heat inactivated (HyClone Laboratories Inc., Logan, UT, cat. SH30070.03HI), 50% L-WRN conditioned media (ATCC, cat. CRL-3276), 1.25 mM N-Acetyl-L-cysteine (Sigma-Aldrich, cat. A9165), 10 mM nicotinamide (Sigma-Aldrich, cat. N0636), 1X B-27 supplement (Thermo Fisher Scientific, cat. 17504044), 1X N-2 supplement (Thermo Fisher Scientific, cat. […]

[1] = curve of first compound, second compound 0.0316 µM
[2] = curve of first compound, second compound 0.1 µM
[3] = curve of first compound, second compound 0.316 µM
[4] = curve of first compound, second compound 1 µM
[5] = curve of first compound, second compound 3.16 µM
[6] = curve of first compound, second compound 10 µM
[7] = second compound 0.0316 µM, first compound 0.0316 µM
[8] = second compound 0.0316 µM, first compound 0.1 µM
[9] = second compound 0.0316 µM, first compound 0.316 µM
[10] = second compound 0.0316 µM, first compound 1 µM
[11] = second compound 0.0316 µM, first compound 3.16 µM
[12] = second compound 0.0316 µM, first compound 10 µM
[13] = second compound 0.1 µM, first compound 0.0316 µM
[14] = second compound 0.1 µM, first compound 0.1 µM
[15] = second compound 0.1 µM, first compound 0.316 µM
[16] = second compound 0.1 µM, first compound 1 µM
[17] = second compound 0.1 µM, first compound 3.16 µM
[18] = second compound 0.1 µM, first compound 10 µM
[19] = second compound 0.316 µM, first compound 0.0316 µM
[20] = second compound 0.316 µM, first compound 0.1 µM
[21] = second compound 0.316 µM, first compound 0.316 µM
[22] = second compound 0.316 µM, first compound 1 µM
[23] = second compound 0.316 µM, first compound 3.16 µM
[24] = second compound 0.316 µM, first compound 10 µM
[25] = second compound 1 µM, first compound 0.0316 µM
[26] = second compound 1 µM, first compound 0.1 µM
[27] = second compound 1 µM, first compound 0.316 µM
[28] = second compound 1 µM, first compound 1 µM
[29] = second compound 1 µM, first compound 3.16 µM
[30] = second compound 1 µM, first compound 10 µM
[31] = second compound 3.16 µM, first compound 0.0316 µM
[32] = second compound 3.16 µM, first compound 0.1 µM
[33] = second compound 3.16 µM, first compound 0.316 µM
[34] = second compound 3.16 µM, first compound 1 µM
[35] = second compound 3.16 µM, first compound 3.16 µM
[36] = second compound 3.16 µM, first compound 10 µM
[37] = second compound 10 µM, first compound 0.0316 µM
[38] = second compound 10 µM, first compound 0.1 µM
[39] = second compound 10 µM, first compound 0.316 µM
[40] = second compound 10 µM, first compound 1 µM
[41] = second compound 10 µM, first compound 3.16 µM
[42] = second compound 10 µM, first compound 10 µM
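Also: spheroids exposed to drugs for 7 days.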
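For viability, T/C in this document: 100% = DMSO vehicle treated spheroids.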

In the case of `CC[C@@]1(O)C(=O)OCc2c1cc1n(c2=O)Cc2cc3c(CN(C)C)c(O)ccc3nc2-1`, the viability, T/C (compound 0.000316 µM) is reported as 86.1% and 53.9% and 105%, the viability, T/C (compound 0.001 µM) is reported as 101% and 95.2% and 87.8% and the viability, T/C (compound 0.00316 µM) is reported as 86.5% and 108% and 111%. The viability, T/C (compound 0.01 µM) was 71.5% and 74% and 68.2%, the viability, T/C (compound 0.0316 µM) was 28% and 52% and 41.7% and the viability, T/C (compound 0.1 µM) was 13.2% and 9.44% and 10.1%. For the same compound, the IC50 (curve of compound) was 0.0176 µM and 0.0328 µM and 0.0221 µM.

For `CCc1cc2c(N3CCc4c(cc(Cn5ccnc5)cc4-c4cn(C)nc4C(F)(F)F)C3=O)cc(C)nc2c(OC)n1` + Cc1cccc(N(C)C(=O)C2C(O)CCN2c2nc(C)cc(C(F)(F)F)c2C#N)c1, the IC50 [1] was > 10 µM, the IC50 [2] was > 10 µM and the IC50 [3] was > 10 µM. For the same compound, the IC50 [4] was 6.22 µM, the IC50 [5] was > 10 µM and the IC50 [6] was > 10 µM. The viability, T/C [7] was 74.7%, the viability, T/C [8] was 61.9% and the viability, T/C [9] was 94.6%. The viability, T/C [10] was 79.2%, the viability, T/C [11] was 68.4% and the viability, T/C [12] was 69.9%. For the same compound, the viability, T/C [13] was 73%, the viability, T/C [14] was 84.7% and the viability, T/C [15] was 90.7%. The viability, T/C [16] was 88.8%, the viability, T/C [17] was 90.5% and the viability, T/C [18] was 77.6%. For the same compound, the viability, T/C [19] was 63%, the viability, T/C [20] was 78.5% and the viability, T/C [21] was 60.2%. For the same compound, the viability, T/C [22] was 66.5%, the viability, T/C [23] was 61.3% and the viability, T/C [24] was 53.1%. For the same compound, the viability, T/C [25] was 106%, the viability, T/C [26] was 76.1% and the viability, T/C [27] was 78.8%. It also gave a viability, T/C [28] of 81.4%, a viability, T/C [29] of 69.6% and a viability, T/C [30] of 38%. It also gave a viability, T/C [31] of 76.5%, a viability, T/C [32] of 83.3% and a viability, T/C [33] of 60.4%. It also gave a viability, T/C [34] of 74.3%, a viability, T/C [35] of 66.8% and a viability, T/C [36] of 67.6%. The viability, T/C [37] was 76%, the viability, T/C [38] was 73.2% and the viability, T/C [39] was 68.1%. For the same compound, the viability, T/C [40] was 89.2%, the viability, T/C [41] was 73.8% and the viability, T/C [42] was 64.1%.

With `COc1cccc2c1C(=O)c1c(O)c3c(c(O)c1C2=O)CC(O)(C(=O)CO)CC3OC1CC(N)C(O)C(C)O1` (configuration not stated) the viability, T/C (compound 0.0316 µM) was 24.5% and 30.4% and 28.5%, the viability, T/C (compound 0.1 µM) was 5.96% and 8.53% and 11.6% and the viability, T/C (compound 0.316 µM) was 2.17% and 5.76% and 2.69%. The viability, T/C (compound 1 µM) was 1.78% and 1.25% and 2.38%, the viability, T/C (compound 3.16 µM) was 2.29% and 1.69% and 2.17% and the viability, T/C (compound 10 µM) was 2.7% and 0.94% and 0.62%. The IC50 (curve of compound) was < 0.0316 µM.

`CC(C)n1c(=O)n(C)c2cnc3cc(F)c(-c4ccc(OCCCN5CCCCC5)nc4)cc3c21` was tested, and the viability, T/C (compound 0.0316 µM) was 95.4% and 78.5% and 82.5%, the viability, T/C (compound 0.1 µM) was 86.1% and 90.5% and 82.5% and the viability, T/C (compound 0.316 µM) was 93.8% and 117% and 70.9%. The viability, T/C (compound 1 µM) was 86.5% and 77.2% and 84.3%, the viability, T/C (compound 3.16 µM) was 56.9% and 68.1% and 62.2% and the viability, T/C (compound 10 µM) was 21.2% and 41.8% and 25.7%. The IC50 (curve of compound) was 3.94 µM and 6.87 µM and 4.65 µM.

In the case of `CC1COCCN1c1cc(C2(O)CC3CCC(C2)O3)c2cnn(-c3ccn[nH]3)c2n1` (configuration not stated), the viability, T/C (compound 0.0316 µM) is reported as 38.3% and 52.8% and 44.6%, the viability, T/C (compound 0.1 µM) is reported as 16.8% and 26.7% and 40.6% and the viability, T/C (compound 0.316 µM) is reported as 18.2% and 26.2% and 20%. The viability, T/C (compound 1 µM) was 23.1% and 20.1% and 17.9%, the viability, T/C (compound 3.16 µM) was 9.3% and 14.8% and 12% and the viability, T/C (compound 10 µM) was 6.01% and 4.54% and 7.55%. For the same compound, the IC50 (curve of compound) was < 0.0316 µM.

`O=C(c1cc(Cc2n[nH]c(=O)c3ccccc23)ccc1F)N1CCN(C(=O)C2CC2)CC1` + COC1C(OC(N)=O)C(O)C(Oc2ccc3c(O)c(NC(=O)c4ccc(O)c(CC=C(C)C)c4)c(=O)oc3c2C)OC1(C)C was tested, and the IC50 [1] was 4.75 µM, the IC50 [2] was 4.62 µM and the IC50 [3] was 4.96 µM. It also gave an IC50 [4] of 4.03 µM, an IC50 [5] of 4.79 µM and an IC50 [6] of 4.21 µM. It also gave a viability, T/C [7] of 56.5%, a viability, T/C [8] of 91.1% and a viability, T/C [9] of 100%. It also gave a viability, T/C [10] of 87.1%, a viability, T/C [11] of 57.7% and a viability, T/C [12] of 35.9%. It also gave a viability, T/C [13] of 110%, a viability, T/C [14] of 81.5% and a viability, T/C [15] of 87.1%. For the same compound, the viability, T/C [16] was 73.5%, the viability, T/C [17] was 72.4% and the viability, T/C [18] was 22.2%. It also gave a viability, T/C [19] of 93.2%, a viability, T/C [20] of 82.2% and a viability, T/C [21] of 86.4%. It also gave a viability, T/C [22] of 67.7%, a viability, T/C [23] of 69.8% and a viability, T/C [24] of 28.9%. The viability, T/C [25] was 99.1%, the viability, T/C [26] was 84.5% and the viability, T/C [27] was 90.2%. For the same compound, the viability, T/C [28] was 69.1%, the viability, T/C [29] was 58.1% and the viability, T/C [30] was 28.1%. For the same compound, the viability, T/C [31] was 84.7%, the viability, T/C [32] was 83.2% and the viability, T/C [33] was 88.4%. For the same compound, the viability, T/C [34] was 76.6%, the viability, T/C [35] was 60.4% and the viability, T/C [36] was 32.2%. It also gave a viability, T/C [37] of 95.5%, a viability, T/C [38] of 79.2% and a viability, T/C [39] of 86%. For the same compound, the viability, T/C [40] was 69.9%, the viability, T/C [41] was 60.8% and the viability, T/C [42] was 27.1%.
